Patent EP4786458A1, “ANALGESIC COMPOUND, PREPARATION METHOD THEREFOR, AND USE THEREOF” (West China Hospital, Sichuan University, priority 2023, dated 2025)

Tests used:
[1] = Loss of tail withdrawal reflex (LOTWR) in rats, single intravenous injection, dose escalation for efficacy and severe adverse reactions; format: in vivo, SD rats; conditions: rat, in vivo, single intravenous injection, minimum dose resulting in serious adverse reactions / minimum effective dose, class symbol, read-out: The safety therapeutic index
Description: (§1) Using the loss of tail withdrawal reflex (LOTWR) in rats as an indicator, the potent analgesic effect of the compounds according to the present invention was evaluated.
(§2) 1.1 Experimental animals: Adult male SD rats weighing between 220-300 g were selected for the experiment. The rats were housed in sawdust-bedded cages with a temperature of 25+1°C, humidity ranging from 40% to 60%, and a 12-hour light/12-hour dark cycle. Each cage contained no more than 5 rats, with free access to water and food.
(§3) • (1) The compound of the present invention, along with the positive control drug remifentanil and the negative control (vehicle), were administered in fixed volumes. A dose escalation approach was employed to determine the minimum effective dose at which the compound of the present invention produces potent analgesic effects, as well as the minimum dose at which severe adverse reactions first appear. • (2) LOTWR lasting for 30 seconds was used as the criterion for generating potent analgesic effects. During the experiment, drugs were administered via the tail vein of rats, with a dosage volume of 0.6 mL per rat and a dosage rate of 0.02 mL/s. Subsequently, an alligator clip was applied at a distance of 1 cm from the base of the rat's tail, clamping once longitudinally and once transversely before being left in place. Meanwhile, the distal end of the alligator clip was continuously oscillated (30 times/min) to continuously generate stimulation. […] When all results were "no LOTWR" after 10 minutes of testing (5 trials), the test was stopped and recorded as "ineffective." • (3) All compounds would undergo a dose escalation for efficacy evaluation, starting from 1 mg/kg (due to the high potency of remifentanil, the lowest dose was set at 1 µg/kg), followed by 5 mg/kg, 10 mg/kg, 20 mg/kg, and so on (increasing by 20 mg/kg increments after 20 mg/kg). The dose escalation would be stopped when rats show signs of death, and the lowest effective dose and the lowest dose at which severe adverse reactions occur would be recorded throughout the process. In this study, severe adverse reactions are defined as apnea, generalized tonic rigidity, convulsions, opisthotonus, seizures, etc.
(§4) 1.3 Evaluation indicators: the minimum effective dose; the minimum dose resulting in serious adverse reactions; the safety therapeutic index = "the minimum dose resulting in serious adverse reactions" / "the minimum effective dose".

[2] = test system: rats; assay: as above; format: in vivo, SD rats; conditions: Rattus norvegicus, single intravenous injection (tail vein), LOTWR lasting for 30 seconds as criterion, class symbol, read-out: The minimum effective dose
Description: as §1, §2, §3, §4

SMILES	selectivity ratio [1]	minimal effective dose [2]
Cc1ccc(NCC(=O)OCc2ccsc2)c(N(C)C)c1 [Example 1]	> 4	≤ 10 mg/kg
Cc1ccc(NCC(=O)OCc2cccs2)c(N(C)C)c1 [Example 2]	2 to 4	> 30 mg/kg
CN(C)c1ccccc1NCC(=O)OCc1cccs1 [Example 4]	> 4	≤ 10 mg/kg
CN(C)c1cc(F)ccc1NCC(=O)OCc1cccs1 [Example 5]	≤ 2	20 to 30 mg/kg
Cc1ccc(OCC(=O)OCc2cccs2)c(N(C)C)c1 [Example 6]	2 to 4	≤ 10 mg/kg
Cc1ccc(NCC(=O)OCc2ccco2)c(N(C)C)c1 [Example 7]	2 to 4	20 to 30 mg/kg
Cc1ccc(NCC(=O)OCc2cccs2)cc1N(C)C [Example 8]	> 4	10 to 20 mg/kg
Cc1ccc(NCC(=O)NCc2ccno2)c(N(C)C)c1 [Example 9]	> 4	≤ 10 mg/kg
Cc1ccc(OCC(=O)NCc2cccs2)c(N(C)C)c1 [Example 10]	> 4	≤ 10 mg/kg
Cc1ccc(NCC(=O)NCc2ccco2)c(N(C)C)c1 [Example 11]	> 4	≤ 10 mg/kg
Cc1ccc(OCC(=O)NCc2ccco2)c(N(C)C)c1 [Example 12]	> 4	10 to 20 mg/kg
CN(C)c1cccc(NCC(=O)OCc2cccs2)c1 [Example 13]	≤ 2	> 30 mg/kg
Cc1ccc(SCC(=O)OCc2cccs2)c(N(C)C)c1 [Example 14]	2 to 4	> 30 mg/kg
CN(C)c1ccccc1NCC(=O)OCc1ccsc1 [Example 15]	2 to 4	> 30 mg/kg
Cc1ccc(NCC(=O)NCc2ccoc2)c(N(C)C)c1 [Example 16]	≤ 2	> 30 mg/kg
Cc1ccc(NCC(=O)NCc2ccns2)c(N(C)C)c1 [Example 17]	> 4	10 to 20 mg/kg
Cc1ccc(NCC(=O)OCc2ccoc2)c(N(C)C)c1 [Example 18]	≤ 2	> 30 mg/kg
Cc1ccc(NCC(=O)NCc2cnsc2)c(N(C)C)c1 [Example 19]	2 to 4	> 30 mg/kg
Cc1ccc(SCC(=O)OCc2ccco2)c(N(C)C)c1 [Example 20]	≤ 2	> 30 mg/kg

SMILES	selectivity ratio [1]	minimal effective dose [2]
Cc1ccc(NCC(=O)NCc2ccco2)cc1N(C)C [Example 21]	≤ 2	> 30 mg/kg
Cc1ccc(NCC(=O)NCc2ncc[nH]2)c(N(C)C)c1 [Example 22]	≤ 2	> 30 mg/kg
Cc1ccc(OCC(=O)OCc2ccco2)c(N(C)C)c1 [Example 23]	≤ 2	> 30 mg/kg
Cc1ccc(OCC(=O)OCc2cccs2)cc1N(C)C [Example 24]	≤ 2	> 30 mg/kg
Cc1ccc(NCC(=O)NCc2ccns2)cc1N(C)C [Example 25]	2 to 4	10 to 20 mg/kg
Cc1ccc(NCC(=O)NCc2ccccc2)c(N(C)C)c1 [Example 27]	≤ 2	≤ 10 mg/kg
Cc1cc(C)cc(CNC(=O)CNc2ccc(C)cc2N(C)C)c1 [Example 28]	≤ 2	20 to 30 mg/kg
Cc1ccc(NCC(=O)NCc2cccs2)cc1N(C)C [Example 29]	≤ 2	> 30 mg/kg
Cc1ccc(NCC(=O)OCc2ccoc2)cc1N(C)C [Example 30]	2 to 4	> 30 mg/kg
Cc1ccc(NCC(=O)NCc2cc(C)nn2C)c(N(C)C)c1 [Example 31]	2 to 4	10 to 20 mg/kg
Cc1ccc(NCC(=O)OCc2cc(C)nn2C)c(N(C)C)c1 [Example 32]	> 4	≤ 10 mg/kg
Cc1ccc(NCC(=O)NCc2ccnn2C)c(N(C)C)c1 [Example 33]	≤ 2	> 30 mg/kg
Cc1ccc(NCC(=O)OCc2ccnn2C)c(N(C)C)c1 [Example 34]	> 4	≤ 10 mg/kg
Cc1ccc(NCC(=O)OCc2ccnn2C)cc1N(C)C [Example 35]	> 4	≤ 10 mg/kg
Cc1ccc(OCC(=O)NCc2ccsc2)c(N(C)C)c1 [Example 36]	2 to 4	10 to 20 mg/kg
Cc1cc(COC(=O)CNc2ccc(C)c(N(C)C)c2)n(C)n1 [Example 37]	> 4	≤ 10 mg/kg
Cc1ccc(NCC(=O)OCc2ccsc2)cc1N(C)C [Example 38]	≤ 2	> 30 mg/kg
Cc1ccc(NCC(=O)OCc2ccco2)cc1N(C)C [Example 39]	> 4	10 to 20 mg/kg
Cc1ccc(NCC(=O)OCc2ccno2)c(N(C)C)c1 [Example 40]	≤ 2	> 30 mg/kg
